Measured values from PubChem BioAssay (NCI).
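96-well plates; 48 h exposure; 5 concentrations. Endpoints by linear interpolation between flanking doses. Not reached: highest tested concentration assigned. GI50 = concentration required for 50% inhibition of growth. At the TGI there is no net growth.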

What was measured:
Assay in all cases: NCI tumour cell line growth inhibition, 48 h
SK-OV-3 ovarian = test system: SK-OV-3 ovarian
HL-60(TB) leukemia = test system: HL-60(TB) leukemia
SK-MEL-28 melanoma = test system: SK-MEL-28 melanoma
OVCAR-3 ovarian = test system: OVCAR-3 ovarian
SNB-75 CNS = test system: SNB-75 CNS
CCRF-CEM leukemia = test system: CCRF-CEM leukemia
SW-620 colon = test system: SW-620 colon
SR leukemia = test system: SR leukemia
HCT-15 colon = test system: HCT-15 colon
NCI/ADR-RES ovarian = test system: NCI/ADR-RES ovarian

| Compound | GI50 (SK-OV-3 ovarian) | TGI (SK-OV-3 ovarian) | GI50 (HL-60(TB) leukemia) | TGI (HL-60(TB) leukemia) | GI50 (SK-MEL-28 melanoma) | TGI (SK-MEL-28 melanoma) | GI50 (OVCAR-3 ovarian) | TGI (OVCAR-3 ovarian) | GI50 (SNB-75 CNS) | TGI (SNB-75 CNS) | GI50 (CCRF-CEM leukemia) | TGI (CCRF-CEM leukemia) | TGI (SW-620 colon) | TGI (SR leukemia) | TGI (HCT-15 colon) | GI50 (SW-620 colon) | GI50 (NCI/ADR-RES ovarian) | TGI (NCI/ADR-RES ovarian) | GI50 (SR leukemia) | GI50 (HCT-15 colon) |
| --- | --- | --- | --- | --- | --- | --- | --- | --- | --- | --- | --- | --- | --- | --- | --- | --- | --- | --- | --- | --- |
| COc1cc2cc(Oc3ccc(NC(=O)Nc4ccc(F)c(C(F)(F)F)c4)cc3)c(C)nc2cc1OCCN1CCCCC1 | 1.87 µM | 3.42 µM | 1.91 µM | 3.81 µM | 1.65 µM | 3.04 µM | 1.87 µM | 3.44 µM | 1.33 µM | 2.6 µM | 1.57 µM | 4.01 µM |  |  |  |  |  |  |  |  |
| CCOC(=O)c1ncoc1[C@H]1COC(C)(C)O1 |  | > 100 µM |  | > 100 µM |  |  |  | > 100 µM |  | > 100 µM |  | > 100 µM | > 100 µM | > 100 µM | > 100 µM |  |  |  |  |  |
| COc1cc(C2CC(c3cccc(Nc4ccncc4)c3)=NN2c2cc(Cl)cc(Cl)c2)cc(OC)c1OC (configuration not stated) | 1.86 µM | 3.89 µM | 1.53 µM | 3.65 µM | 1.76 µM | 3.31 µM | 1.73 µM | 3.21 µM | 1.31 µM | 3.06 µM |  |  | 3.2 µM | 3.72 µM | 3.43 µM | 1.67 µM | 1.84 µM | 3.53 µM | 1.64 µM | 1.79 µM |
| COc1ccc(/C=C2\CN(C(=O)CCN3CCC(=NO)CC3)C/C(=C\c3ccc(OC)cc3)C2=O)cc1 | 2.72 µM | 7 µM | 2.8 µM | 8.27 µM | 2 µM | 4.17 µM | 1.89 µM | 3.56 µM | 2.14 µM | 9.33 µM | 3.05 µM | 18.9 µM | 3.14 µM | 29.1 µM | 5.56 µM | 1.39 µM | 3.72 µM | 20.8 µM | 0.616 µM | 2.15 µM |
| CC(=O)Oc1ccccc1[C@H]1CC(=O)C[C@H](c2ccccc2OC(C)=O)C12C(=O)c1ccccc1C2=O |  | > 100 µM |  | > 100 µM |  | 51.2 µM |  | 89.2 µM |  | > 100 µM |  | > 100 µM |  | > 100 µM | > 100 µM |  |  | > 100 µM |  |  |
